Results on one molecule are retold here after US8900444B2, “Switchable hydrophilicity solvents and methods of use thereof” (Queen's University at Kingston, priority 2009, dated 2014).

Some results are limits rather than exact numbers.

Common to all, as to format: physicochemical
Data set [1] is described as follows: Qualitative switchability assessment of BA (Example 1B). The conditions noted are these: 80 °C oil bath, stirred. The text has this: The BA amidine's ability to act as a switchable hydrophilicity solvent for the separation of a selected substance is dependent on its ability to switch from the hydrophobic form to a hydrophilic form. This is achieved by adding water to provide an aqueous layer and decreasing the pH of the aqueous layer, namely by dissolving CO2 in the aqueous layer. When carbon dioxide dissolves in water, it forms carbonic acid with pKa1 of 6.4. The resultant dissociation is sufficient to protonate a hydrophobic amidine, causing it to become charged forming a hydrophilic amidinium bicarbonate (BAB). In this preliminary switching study, the amidine's ability to act as a base and its ability to switch hydrophilicity were studied.
Switching behavior was studied for BA over various periods of time. A glass vial (4 mL) was prepared, containing distilled water (1.0 mL) and BA amidine (0.5 mL).
CO2 was bubbled through the vial for roughly 30 minutes, until the top layer had disappeared showing that a hydrophilic solution of BAB in water had been formed.
A magnetic stirrer was placed in the vial. The vial was suspended in an 80° C. oil bath and stirred. The vial was intermittently removed from the bath and monitored for the presence of a second layer after 20, 50 and 75 minutes. The formation of a second layer (hydrophobic BA) was noted after 20 minutes in the oil bath.

A short description of data set [2]: Quantitative switching study of BA by 1H NMR (Example 1D). The protocol: A methanol-d4 solution was prepared containing a sodium acetate internal standard (48.8 mM).
Two 4 mL glass vials containing 1.0 mL D2O and 0.5 mL BA were prepared and shaken. A 50 μL sample was withdrawn from each layer of one vial and combined with 0.50 mL of the sodium acetate standard solution in each of two NMR tubes: the top layer (BA) in a first tube; the bottom layer (aqueous) in a second tube.
Carbon dioxide was bubbled through the unsampled vial until the BA had completely converted to BAB, as evidenced by the disappearance of the top layer. The pH of the solution was measured using pH paper to be approximately 8-9. A 50 μL sample was withdrawn from the BAB/D2O solution and added to 0.50 mL of the sodium acetate standard solution in a third NMR tube.
The 4.0 mL vial from which the last NMR sample was withdrawn was then heated at 80° C. for 1 h and stirred by a magnetic stirrer. Bubbles of CO2 were observed escaping from the solution and a top layer, hydrophobic amidine, appeared. After cooling the vial to room temperature, a 50 μL sample was withdrawn from each layer and combined with 0.50 mL of the sodium acetate standard in two NMR tubes: the top layer (BA) in a fourth tube; the bottom layer (aqueous) in a fifth tube.
The NMR spectra of all five samples are shown in FIG. 10 with the first to fifth tubes shown from top to bottom. […] In addition, using the ‘c’ and ‘d’ protons provided stronger signals, to improve accuracy. Based on the strength of the ‘c’ and ‘d’ signals, 11% of the BA remained in the aqueous phase as BAB after the experiment
Using dioxane as the internal standard gave the same results (11% BAB retention in the aqueous phase) as sodium acetate.
The same experiment was repeated except that the temperature of the heating of the 4.0 mL vial was increased from 80° C. to 90° C. A similar retention of BAB in the aqueous phase (12%) was observed.

Data set [3] is described as follows: Polarity study with solvatochromatic dye Nile Red (Example 3). As to conditions: water-saturated BA or aqueous solution of BAB. The protocol:
The maximum wavelength of absorption, λmax, of a switchable hydrophilicity solvent, N,N,N′-tributylpentanamidine (BA), was analyzed in its hydrophobic and hydrophilic forms using the solvatochromatic dye, Nile Red. A 1 Dram vial was prepared containing 1 mL of distilled water to which 1 mL of BA was added. […] This ensured saturation of the BA phase with water. The top phase comprising the BA liquid was pipetted into a quartz cuvette (Semi-Micro Cells, Self Masking Black Walls Spectrosil® Quartz, Starna Cells, Atascadero, Calif., USA) and 1 mg of Nile Red was added, to provide a bright orange-magenta solution. The ultraviolet absorbance spectrum was acquired on an Agilent Technologies ultraviolet/visible spectrometer 50-60 Hz with UV-Visible Chemstation software. The λmax was 510 nm. Distilled water (1.0 mL) was then added to the quartz cuvette and carbon dioxide was slowly bubbled into the mixture for 1 hour to switch the BA to its ionic form, N,N,N′-tributylpentanamidinium bicarbonate (BAB), after which the homogenous mixture turned purple. The ultraviolet absorbance spectrum of the aqueous solution of the dye and ionic salt was then acquired as discussed in the previous paragraph. The λmax was 570 nm.

As to `CCCCN=C(CCCC)N(CCCC)CCCC.O=C(O)O` [BAB, N,N,N′-tributylpentanamidinium bicarbonate], the “heating time to formation of second (hydrophobic) layer” value in data set [1] turned out to be 20 min. Further, in data set [2] (80 °C, 1 h, dioxane internal standard), the “BAB retention in the aqueous phase after heating” value stood at 11%. The “retention of BAB in the aqueous phase after heating” value in data set [2] (90 °C) is reported as 12%. In addition, in data set [2] (BAB/D2O solution, pH paper), the “pH of solution after complete conversion with CO2” value is 8-9. The “BAB ionic form converted back to BA” value in data set [2] (after heating for 1 hour) was > 90%. Further, the “maximum wavelength of absorption (λmax) of Nile Red” value in data set [3] was found to be 570 nm.
